# Experimental data: PMC7932521, “2-aminobenzimidazoles for leishmaniasis: From initial hit discovery to in vivo profiling” (PLoS Neglected Tropical Diseases, 2021)
# Like-named read-outs stand apart in the source and are kept apart here.
# Experiments:
# [1] = test system: Leishmania infantum MHOM/MA(BE)/67/ITMAP263 amastigotes; assay: L. infantum intracellular amastigote assay in PMM; type: cell-based; conditions: Leishmania infantum
# Summary of the method: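 Mouse peritoneal macrophages infected with hamster spleen-derived amastigotes (2 h, 37°C), then exposed to 4-fold dilutions from 64 μM (DMSO <1%) for 5 days at 37°C, 5% CO2. Burden scored microscopically after Giemsa staining as percent reduction vs untreated wells; IC50 as geometric mean of ≥2 experiments.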
# [2] = test system: L. tropica MHOM/AF/2015/HTD7; assay: VL/CL panel, intracellular amastigotes; type: cell-based; conditions: Leishmania tropica; average; read-out: IC-50 L. tropica MHOM/AF/2015/HTD7
# Method: (§1) For the antileishmania in vitro assays, 3×10^4 PMM/well were seeded in 96-well plates. After 24h, 5×10^5 amastigotes/well were added and incubated for 2h at 37°C. Next, the compounds in 4-fold serial dilutions were added and the plates were further incubated for 5 days (37°C, 5% CO2). Parasite burdens were assessed using an inverted microscope after Giemsa staining. The results were expressed as percent reduction in parasite burdens compared to negative control wells (100% growth) and IC50 values were determined. Values represent the geometric mean of at least two independent experiments. Miltefosine was used as the positive control in all plates.
# [3] = test system: L. guyanensis MHOM/PE/02/PER 054/0; assay: VL/CL panel, intracellular amastigotes; type: cell-based; conditions: Leishmania guyanensis; average; read-out: IC-50 L. guyanensis MHOM/PE/02/PER 054/0
# Method: as §1
# [4] = test system: L. infantum LEM3323-cl4 PMM; assay: VL/CL panel, intracellular amastigotes; type: cell-based; conditions: Leishmania infantum, read-out: IC-50 L. infantum LEM3323-cl4 PMM
# Method: as §1
# [5] = test system: L. donovani MHOM/ET/2007/LLM-1600; assay: VL/CL panel, intracellular amastigotes; type: cell-based; conditions: Leishmania donovani; average; read-out: IC-50 L. donovani MHOM/ET/2007/LLM-1600
# Method: as §1
# [6] = test system: L. panamensis MHOM/PA/71/LS94; assay: VL/CL panel, intracellular amastigotes; type: cell-based; conditions: Leishmania panamensis; average; read-out: IC-50 L. panamensis MHOM/PA/71/LS94
# Method: as §1
# [7] = test system: L. braziliensis MHOM/BR/94/H3227; assay: VL/CL panel, intracellular amastigotes; type: cell-based; conditions: Leishmania braziliensis; average; read-out: IC-50 L. braziliensis MHOM/BR/94/H3227
# Method: as §1
# [8] = test system: L. major MHOM/SA/85/JISH118; assay: VL/CL panel, intracellular amastigotes; type: cell-based; conditions: Leishmania major; average; read-out: IC-50 L. major MHOM/SA/85/JISH118
# Method: as §1
# [9] = test system: L. infantum MHOM/BR/2007/WC (L3015); assay: VL/CL panel, intracellular amastigotes; type: cell-based; conditions: Leishmania infantum; average; read-out: IC-50 L. infantum MHOM/BR/2007/WC (L3015)
# Method: as §1
# [10] = test system: L. infantum LEM3323-cl4 MIL; assay: VL/CL panel, intracellular amastigotes; type: cell-based; conditions: Leishmania infantum, read-out: IC-50 L. infantum LEM3323-cl4 MIL
# Method: as §1
# [11] = test system: L. major MHOM/IL/81/Friedlin; assay: VL/CL panel, intracellular amastigotes; type: cell-based; conditions: Leishmania major; average; read-out: IC-50 L. major MHOM/IL/81/Friedlin
# Method: as §1
# [12] = test system: L. donovani MHOM/ NP/2003/ BPK282/0-cl4; assay: VL/CL panel, intracellular amastigotes; type: cell-based; conditions: Leishmania donovani; average; read-out: IC-50 L. donovani MHOM/ NP/2003/ BPK282/0-cl4
# Method: as §1
# [13] = test system: L. donovani MHOM/NP/03/BPK275/0-cl18; assay: VL/CL panel, intracellular amastigotes; type: cell-based; conditions: Leishmania donovani; average; read-out: IC-50 L. donovani MHOM/NP/03/BPK275/0-cl18
# Method: as §1
# [14] = test system: L. infantum MHOM/ES/2016/LLM-2346; assay: VL/CL panel, intracellular amastigotes; type: cell-based; conditions: Leishmania infantum; average; read-out: IC-50 L. infantum MHOM/ES/2016/LLM-2346
# Method: as §1
# [15] = test system: L. infantum MHOM/FR/96/LEM3323-cl4; assay: VL/CL panel, intracellular amastigotes; type: cell-based; conditions: Leishmania infantum; average; read-out: IC-50 L. infantum MHOM/FR/96/LEM3323-cl4
# Method: as §1
# [16] = test system: L. infantum (MHOM/BR/2005/NLC) strain expressing luciferase; type: in vivo, Leishmania infantum; conditions: 40 mg/kg/day oral, 5 days, and washout
# Method: Groups of female BALB/c mice (n = 5) were infected with 10^8 stationary phase promastigotes of L. infantum chagasi-LUC in a final volume of 100 μL by the intraperitoneal route. At day 14 post-infection, groups were orally treated for 5 days with either drug vehicle only (10% ethanol, 40% PEG400 and 0.4% Tween80 in saline buffer—pH adjusted to 9), miltefosine (40 mg/kg QD) or with compounds 29 and 39 (25 mg/kg QD). Light emission in the ventral abdominal cavity of infected animals was recorded by bioimaging (IVIS Spectrum, Caliper Life Sciences) on 14, 19- and 24-days post-infection. Before imaging, mice received 75 mg/kg VivoGlo™ Luciferin (Promega Corporation) (i.p.) and were anesthetized in a 2% isoflurane atmosphere (Cristália). Animals were then transferred to the imaging chamber and kept in a 2% isoflurane atmosphere. Emitted photons were collected using the high resolution (medium binning) mode. Total photon emission from a defined region of interest (ROI) corresponding to the whole abdominal area was registered. The same ROI was applied to all animals in any given group. Images were acquired 15 min after luciferin injection. Total photon emission from each mouse was quantified with Living Image software version 4.3.1 (Caliper Life Sciences), and results were expressed as the number of photons/s/ROI subtracted from the corresponding ROI in uninfected animals. The detected signal was presented as a pseudocolor image representing light intensity (red = most intense and blue = least intense) and superimposed on the gray scale reference image.
structure (smiles),measurement,setting,value
"CCCCCCCCCCCCCCCCOP(=O)([O-])OCC[N+](C)(C)C [Miltefosine, reference compound]",IC50,"[1]; 120 h, intracellular amastigotes in PMM, 5 days, read-out: L. infantum IC50",11200 nM
same,IC50,"[1]; panel sheet, average, read-out: IC-50 L. infantum MHOM/MA/67/ITMAP263",1160 nM
same,IC50,[2],2160 nM
same,IC50,[3],8060 nM
same,IC50,[4],2690 nM
same,IC50,[5],2010 nM
same,IC50,[6],1810 nM
same,IC50,[7],1000 nM
same,IC50,[8],24000 nM
same,IC50,[9],2160 nM
same,IC50,[10],20300 nM
same,IC50,[11],11300 nM
same,IC50,[12],1810 nM
same,IC50,[13],2070 nM
same,IC50,[14],2070 nM
same,IC50,[15],2010 nM
same,parasite load (total ventral bioluminescence),[16],undetectable levels
